Patent US9566224B2, “Tyrosinase inhibitors” (Avon Products, Inc., priority 2013, dated 2017)

System: Mushroom tyrosinase
Experiment: Mushroom tyrosinase assay (conversion of L-Tyrosine to DOPAchrome)
Assay type: biochemical
Conditions: 25° C., 30 min, absorbance 492 nm
Description: Mushroom Tyrosinase Assay. Mushroom tyrosinase and L-Tyrosine were obtained from Sigma-Aldrich, Inc. (St. Louis, Mo.). The enzyme activity was measured in buffer containing 100 mM phosphate buffer pH 6.8, 5% absolute ethanol, 2 micrograms/milliliter mushroom tyrosinase, and 0.2 mg/ml L-Tyrosine. The reaction (conversion of L-Tyrosine to DOPAchrome) was conducted in triplicates at 25° C. for 30 min, and absorbance was then measured at 492 nm. Kojic Acid was used as a positive control inhibitor in these assays. Percent change in tyrosinase activity relative to vehicle control was calculated.

Tyrosinase Inhibition (percent change in tyrosinase activity compared to DMSO vehicle control) (concentration 0.001%): −36% | Tyrosinase Inhibition (percent change in tyrosinase activity compared to DMSO vehicle control) (concentration 0.01%): −75%
SMILES: Oc1ccc(C=NNC(=S)NCC2CCCO2)c(O)c1 (centres unmarked) [AV6989]
